Laboratory results from patent US20230392116A1, “METHOD FOR DIFFERENTIATING CORNEAL ENDOTHELIAL CELL-LIKE CELLS FROM PLURIPOTENT STEM CELLS” (StemSight Oy, priority 2020, published 2023).

Tested on: human pluripotent stem cells (hPSC)
Assay: Differentiation of human pluripotent stem cells (hPSC) into corneal endothelial cell (CEC)-like cells
Type: cell-based
Conditions: for emergence of NCC markers: SB431542 and CHIR99021 as differentiation induction agents; for time at which NCC markers appeared: culture medium with about 10 μM SB431542 and about 4 μM CHIR99021 together
Protocol: Embryonic (hESC) and induced pluripotent stem cells (iPSC) were used to generate CECs. Briefly, hPSCs were seeded on Laminin 521 (Biolamina) coated CellBind 6/12 well-plates (Corning) in 10 000-60 000 cell/cm 2 cell density. The cells were cultured in Essential 8 Flex medium (Thermo Fisher) for 24h. On day 1, Essential 8 flex medium was replaced with an induction medium supplemented with 10 μM SB431542 (Stemcell), 4 μM CHIR99021 (Stemcell) and 10 μM retinoic acid (RA, Sigma-Aldrich). Base of the induction medium consisted of KO-DMEM, 15% Knock-out serum replacement, 2 mM GlutaMax-I, 0.1 mM 2-mercaptoethanol (all from Thermo Fisher), 1% Non-essential Amino Acids, 50 U/ml Penicillin/Streptomycin. […] After day 9, CEC-like cells were formed, and harvested for analyses.
The hPSC-derived CECs were analyzed by immunocytochemistry. Briefly, the cells were fixed with 1 or 4% paraformaldehyde (PFA, Sigma-Aldrich) for 15 minutes. Next, the cells were permeabilized for 10 minutes with 0.1% Triton X-100 (Sigma-Aldrich) followed by blocking with 3% bovine serum albumin (BSA) for 1 hour. Then the cells were first incubated with 1:400 zona occludens-1 (ZO-1; Thermo Fisher), 1:200 alpha 1 sodium potassium ATPase (Na+/K+-ATPase, Abcam) and 1:400 CD166 (BD Biosciences) primary antibodies overnight at 4° C. The cells were next treated with 1:800 Donkey anti-Rabbit IgG Secondary Antibody, Alexa Fluor 488 (Thermo Fisher) against ZO-1; 1:800 Donkey anti-Mouse IgG Secondary Antibody, Alexa Fluor 568 (Thermo Fisher) against Na+/K+-ATPase and CD166; and 1:800 Donkey anti-Goat IgG Secondary Antibody, Alexa Fluor 568 (Thermo Fisher) against OCT-3/4. […] The images of mounted cells were captured using a fluorescence microscope (Olympus IX51; Olympus, Tokyo, Japan) and prepared using image editing software (Adobe Photoshop CC 2018; Adobe Systems) […]
Total RNA was extracted from undifferentiated hPSCs (d0), and from 3 time points during the time of hCEC induction (d3, d6 and d9) with Rneasy Minikit Plus (Qiagen). RNA concentration of each sample was determined using NanoDrop-1000 spectrophotometer (NanoDrop Technologies). […] The resulting cDNA samples were analyzed with qPCR using sequence-specific TaqMan Gene Expression Assays (Thermo Fisher) for OCT4 (Hs00999632_g1), PITX2 (Hs01553179_m1), AQP1 (Hs01028916_m1), SLC4A4 (Hs00186798_m1), and FOXC1 (Hs00559473_s1). […] Results were analyzed with the 7300 System SDS Software (Applied Biosystems) and Microsoft Excel. Based on the cycle threshold (CT) values given by the software, the relative quantification of each gene was calculated by applying the […] (Livak and Schmittgen, 2001). Results were normalized to GAPDH (Hs99999905_m1), with the undifferentiated hPSCs as the calibrator to determine the relative quantities of gene expression in each sample.

| Compound | emergence of NCC markers | time at which NCC markers appeared [days] |
| --- | --- | --- |
| Cc1c[nH]c(-c2cnc(NCCNc3ccc(C#N)cn3)nc2-c2ccc(Cl)cc2Cl)n1 [CHIR99021] | contributed to emergence of NCC markers | ~3 |
| NC(=O)c1ccc(-c2nc(-c3ccc4c(c3)OCO4)c(-c3ccccn3)[nH]2)cc1 [SB431542, 4-[4-(1,3-Benzodioxol-5-yl)-5-(2-pyridinyl)-1H-imidazol-2-yl]-benzamide] | contributed to emergence of NCC markers | ~3 |
